# According to ChEMBL document CHEMBL1212769, “Multiple-dose safety, tolerability, and pharmacokinetics of oral nemonoxacin (TG-873870) in healthy volunteers” (Antimicrob Agents Chemother, 2010):
# Experiments:
# [1] = AUC (0 to 24 hrs) in human at 500 mg/kg, po measured on day 1; assay type: ADME, organism-based; design: time < 24 hr, dose 500 mg/kg, route oral; conditions: plasma
# [2] = AUC (0 to last) in human at 75 mg/kg, po measured on day 10; assay type: ADME, organism-based; design: time 0 - last, dose 75 mg/kg, route oral; conditions: plasma
# [3] = Clearance in human assessed as compound recovered in urine at 1000mg/kg, po measured on day 10 up to 24 hrs post dose; assay type: ADME, organism-based; conditions: read-out: amount in urine
# [4] = Renal clearance in human at 500 […], po measured on day 10; assay type: ADME, organism-based, Kidney; design: route oral; conditions: in vivo, read-out: CL_renal (converted)
# [5] = Renal clearance in human at 500 […], po measured on day 1; assay type: ADME, organism-based, Kidney; design: route oral; conditions: in vivo, read-out: CL_renal (converted)
# [6] = Terminal half life in human at 1000 […], po measured on day 10; assay type: ADME, organism-based; design: route oral; conditions: in vivo, read-out: beta t1/2 (converted)
# [7] = Terminal half life in human at 75 […], po measured on day 10; assay type: ADME, organism-based; design: route oral; conditions: in vivo, read-out: beta t1/2 (converted)
# [8] = Terminal half life in human at 500 […], po measured on day 10; assay type: ADME, organism-based; design: route oral; conditions: in vivo, read-out: beta t1/2 (converted)
# [9] = Cmax in human at 750 […], po measured on day 10; assay type: ADME, organism-based; design: dose 750 mg/kg, route oral; conditions: in vivo
# [10] = AUC (0 to last) in human at 1000 […], po measured on day 10; assay type: ADME, organism-based; design: time 0 - last, dose 1000 mg/kg, route oral; conditions: plasma
# Homo sapiens [11] = experiment: Toxicity in human assessed as occurrence of somnolence at 500 […], po administered as single dose; assay type: organism-based; design: route oral; conditions: in vivo
# Homo sapiens [12] = experiment: Toxicity in human assessed as occurrence of pruritus at 75 […], po administered as single dose; assay type: organism-based; design: route oral; conditions: in vivo
# Homo sapiens [13] = experiment: Toxicity in human assessed as occurrence of diarrhea at 750 […], po administered as single dose; assay type: organism-based; design: route oral; conditions: in vivo
# [14] = Clearance in human assessed as compound recovered in urine at 750 mg/kg, po measured on day 1 up to 24 hrs post dose; assay type: ADME, organism-based; design: dose 750 mg/kg, route oral; conditions: read-out: amount in urine
# [15] = Renal clearance in human at 500 […], po measured on day 16; assay type: ADME, organism-based, Kidney; design: route oral; conditions: in vivo, read-out: CL_renal (converted)
# Homo sapiens [16] = experiment: Toxicity in human assessed as occurrence of abdominal pain at 250 […], po administered as single dose; assay type: organism-based, Abdomen; design: route oral; conditions: in vivo
# Homo sapiens [17] = experiment: Toxicity in human assessed as occurrence of abdominal pain at 750 […], po administered as single dose; assay type: organism-based, Abdomen; design: route oral; conditions: in vivo
# [18] = Tmax in human at 750 […], po measured on day 1; assay type: ADME, organism-based; design: route oral; conditions: in vivo
# [19] = AUC (0 to 24 hrs) in human at 1000 […], po measured on day 1; assay type: ADME, organism-based; design: time < 24 hr, dose 1000 mg/kg, route oral; conditions: plasma
# [20] = Renal clearance in human at 750 […], po measured on day 1; assay type: ADME, organism-based, Kidney; design: route oral; conditions: in vivo, read-out: CL_renal (converted)
# [21] = Tmax in human at 500 […], po measured on day 1; assay type: ADME, organism-based; design: route oral; conditions: in vivo
# [22] = Clearance in human assessed as compound recovered in urine at 75 mg/kg, po measured on day 1 up to 24 hrs post dose; assay type: ADME, organism-based; design: dose 75 mg/kg, route oral; conditions: read-out: amount in urine
# [23] = AUC (0 to last) in human at 750 mg/kg, po measured on day 10; assay type: ADME, organism-based; design: time 0 - last, dose 750 mg/kg, route oral; conditions: plasma
# [24] = AUC (0 to 24 hrs) in human at 750 mg/kg, po measured on day 10; assay type: ADME, organism-based; design: time < 24 hr, dose 750 mg/kg, route oral; conditions: plasma
# [25] = AUC (0 to 24 hrs) in human at 750 mg/kg, po measured on day 1; assay type: ADME, organism-based; design: time < 24 hr, dose 750 mg/kg, route oral; conditions: plasma
# [26] = Tmax in human at 250 […], po measured on day 1; assay type: ADME, organism-based; design: route oral; conditions: in vivo
# [27] = AUC (0 to 24 hrs)in human at 500 mg/kg, po measured on day 10; assay type: ADME, organism-based; design: time < 24 hr, dose 500 mg/kg, route oral; conditions: plasma
# [28] = Clearance in human assessed as compound recovered in urine at 250 mg/kg, po measured on day 1 up to 24 hrs post dose; assay type: ADME, organism-based; design: dose 250 mg/kg, route oral; conditions: read-out: amount in urine
# Homo sapiens [29] = experiment: Toxicity in human assessed as occurrence of pollakiuria at 75 […], po administered as single dose; assay type: organism-based; design: route oral; conditions: in vivo
# [30] = Cmax in human at 500 […], po measured on day 1; assay type: ADME, organism-based; design: dose 500 mg/kg, route oral; conditions: in vivo
# [31] = Clearance in human assessed as compound recovered in urine at 500 mg/kg, po measured on day 16 up to 24 hrs post dose; assay type: ADME, organism-based; design: dose 500 mg/kg, route oral; conditions: read-out: amount in urine
# Homo sapiens [32] = experiment: Toxicity in human assessed as occurrence of rashes at 1000 […], po administered as single dose; assay type: organism-based; design: route oral; conditions: in vivo
# [33] = Oral clearance in human at 250 mg/kg measured on day 10; assay type: ADME, organism-based; design: dose 250 mg/kg; conditions: in vivo
# [34] = Oral clearance in human at 250 mg/kg measured on day 1; assay type: ADME, organism-based; design: dose 250 mg/kg; conditions: in vivo
# [35] = Oral clearance in human at 500 mg/kg measured on day 1; assay type: ADME, organism-based; design: dose 500 mg/kg; conditions: in vivo
# Homo sapiens [36] = experiment: Toxicity in human assessed as occurrence of diarrhea at 250 […], po administered as single dose; assay type: organism-based; design: route oral; conditions: in vivo
# [37] = Renal clearance in human at 1000 […], po measured on day 10; assay type: ADME, organism-based, Kidney; design: route oral; conditions: in vivo, read-out: CL_renal (converted)
# [38] = Oral clearance in human at 75 mg/kg measured on day 10; assay type: ADME, organism-based; design: dose 75 mg/kg; conditions: in vivo
# [39] = AUC (0 to last) in human at 500 mg/kg, po measured on day 10; assay type: ADME, organism-based; design: time 0 - last, dose 500 mg/kg, route oral; conditions: plasma
# [40] = AUC (0 to last) in human at 1000 […], po measured on day 1; assay type: ADME, organism-based; design: time 0 - last, dose 1000 mg/kg, route oral; conditions: plasma
# Homo sapiens [41] = experiment: Toxicity in human assessed as occurrence of rashes at 250 […], po administered as single dose; assay type: organism-based; design: route oral; conditions: in vivo
# [42] = Tmax in human at 250 […], po measured on day 10; assay type: ADME, organism-based; design: dose 250 mg/kg, route oral; conditions: in vivo
# [43] = Tmax in human at 1000 […], po measured on day 1; assay type: ADME, organism-based; design: route oral; conditions: in vivo
# [44] = Tmax in human at 1000 […], po measured on day 10; assay type: ADME, organism-based; design: route oral; conditions: in vivo
# [45] = Cmax in human at 75 […], po measured on day 10; assay type: ADME, organism-based; design: dose 75 mg/kg, route oral; conditions: in vivo
# Homo sapiens [46] = experiment: Toxicity in human assessed as occurrence of pollakiuria at 500 […], po administered as single dose; assay type: organism-based; design: route oral; conditions: in vivo
# Homo sapiens [47] = experiment: Toxicity in human assessed as occurrence of dermatitis at 500 […], po administered as single dose; assay type: organism-based; design: route oral; conditions: in vivo
# Homo sapiens [48] = experiment: Toxicity in human assessed as occurrence of diarrhea at 500 […], po administered as single dose; assay type: organism-based; design: route oral; conditions: in vivo
# [49] = Clearance in human assessed as compound recovered in urine at 250 mg/kg, po measured on day 10 up to 24 hrs post dose; assay type: ADME, organism-based; design: dose 250 mg/kg, route oral; conditions: read-out: amount in urine
# [50] = AUC (0 to last) in human at 500 mg/kg, po measured on day 16; assay type: ADME, organism-based; design: time 0 - last, dose 500 mg/kg, route oral; conditions: plasma
# [51] = Oral clearance in human at 500 mg/kg measured on day 10; assay type: ADME, organism-based; design: dose 500 mg/kg; conditions: in vivo
compound,measurement,setting,value
COc1c(N2C[C@@H](C)C[C@H](N)C2)ccc2c(=O)c(C(=O)O)cn(C3CC3)c12 [NEMONOXACIN],AUC(0-t) at 24 h,[1],31.6 µg·h/mL
same,AUC(0-t),[2],5.45 µg·h/mL
same,dose excreted at 24 h,[3],48.6%
same,CL renal,[4],131 mL/min
same,CL renal,[5],115 mL/min
same,half-life,[6],19.4 h
same,half-life,[7],23 h
same,half-life,[8],18.6 h
same,Cmax,[9],6.82 µg/mL
same,AUC(0-t),[10],88.3 µg·h/mL
same,Activity,Homo sapiens [11],0%
same,Activity,Homo sapiens [12],0%
same,Activity,Homo sapiens [13],0%
same,dose excreted at 24 h,[14],47.1%
same,CL renal,[15],113 mL/min
same,Activity,Homo sapiens [16],0%
same,Activity,Homo sapiens [17],0%
same,Tmax,[18],1.5 h
same,AUC(0-t) at 24 h,[19],59.6 µg·h/mL
same,CL renal,[20],133 mL/min
same,Tmax,[21],1 h
same,dose excreted at 24 h,[22],56.4%
same,AUC(0-t),[23],69.3 µg·h/mL
same,AUC at 24 h,[24],58.4 µg·h/mL
same,AUC(0-t) at 24 h,[25],46.1 µg·h/mL
same,Tmax,[26],1.25 h
same,AUC at 24 h,[27],38.6 µg·h/mL
same,dose excreted at 24 h,[28],36.8%
same,Activity,Homo sapiens [29],0%
same,Cmax,[30],5.12 µg/mL
same,dose excreted at 24 h,[31],30.5%
same,Activity,Homo sapiens [32],0%
same,CL/F,[33],223 mL/min
same,CL/F,[34],279 mL/min
same,CL/F,[35],242 mL/min
same,Activity,Homo sapiens [36],0%
same,CL renal,[37],115 mL/min
same,CL/F,[38],224 mL/min
same,AUC(0-t),[39],46.7 µg·h/mL
same,AUC(0-t),[40],59.6 µg·h/mL
same,Activity,Homo sapiens [41],0%
same,Tmax,[42],1.09 h
same,Tmax,[43],2 h
same,Tmax,[44],2.07 h
same,Cmax,[45],0.514 µg/mL
same,Activity,Homo sapiens [46],0%
same,Activity,Homo sapiens [47],0%
same,Activity,Homo sapiens [48],0%
same,dose excreted at 24 h,[49],49.9%
same,AUC(0-t),[50],26 µg·h/mL
same,CL/F,[51],184 mL/min
